{
  "source": "paper PMC4061482",
  "about": "(Frontiers in Oncology, 2014)",
  "assay_in_all_cases": "17β-estradiol ELISA after estrone stimulation",
  "assay_type_in_all_cases": "cell-based, human",
  "key": {"[1]": {"test_system": "MCF7 cells", "settings": "Homo sapiens, MCF7; 10 μM; 28 nM estrone, 24 h; read-out: Inhibition of 17β-estradiol formation", "protocol": "(§1) Cells were seeded into 96-well plates in hormone-deprived media at appropriate seeding densities [10,000–50,000 cells per well for all lines except HCC1500 (100,000 cells per well; 11β-PGF2α ELISA)] to reach approximately 70% confluency at the time of sampling and were left to settle for 24 h at 37°C and 5% CO2. Inhibitors were added to the plates at single or multiple concentrations for 1 h prior to administration of equimolar (28 nM) concentrations of PGD2 (11β-PGF2α ELISA), androstenedione (testosterone ELISA), or estrone (17β-estradiol ELISA). The plates were returned to the incubator for a further 24 h before cell supernatant was removed for analysis of 11β-PGF2α, testosterone, or 17β-estradiol by ELISA as per manufacturer’s instructions (11β-PGF2α and testosterone ELISA, Cayman Chemical Company; 17β-estradiol ELISA, Oxford Biomedical Research), and cells were fixed for sulforhodamine B analysis as described below. Each ELISA plate was read at a wavelength of 405 nm (11β-PGF2α and testosterone) or 650 nM (17β-estradiol) on a SpectraMax M2 microplate reader (Molecular Devices) and quantitated against a standard curve generated in hormone-deprived culture media. Cross-reactivity to PGD2, androstenedione, or estrone was accounted for by adding these to cell-free wells of each ELISA plate.\n(§2) 17β-estradiol is predominantly produced from estrone by 17β-HSD1 in breast tissue in post-menopausal women ([44]). Although less catalytically efficient than 17β-HSD1, AKR1C3 can also convert estrone to 17β-estradiol ([10], [12], [14]), and therefore, may play a role in ER-positive breast cancer development. To investigate the activity of AKR1C3 in 17β-estradiol production, ER-positive breast cancer cells and known high and low AKR1C3-expressing cells were stimulated with estrone for 24 h prior to determination of 17β-estradiol levels by ELISA."}, "[2]": {"test_system": "T47D AKR1C3 cells", "settings": "10 μM; 28 nM estrone, 24 h", "protocol": "as §1, §2"}, "[3]": {"test_system": "T47D cells", "settings": "10 μM; 28 nM estrone, 24 h", "protocol": "as §1, §2"}},
  "data": [
    {"smiles": "CC1CCCCN1S(=O)(=O)c1ccc(N2CCCC2=O)cc1", "note": "(stereo not drawn) [SN33638]", "values": [
      {"measurement": "inhibition at 10 µM", "setting": "[1]", "value": 16, "unit": "%"},
      {"measurement": "Effect on 17β-estradiol levels", "setting": "[2]", "value": "no effect"},
      {"measurement": "Effect on 17β-estradiol levels", "setting": "[3]", "value": "no effect"}
    ]}
  ]
}
